Data from patent publication US9456589B2, “Elasmobranch-repelling compounds and methods of use” (priority 2005, dated 2016).
Like-named read-outs stand apart in the source and are kept apart here.

Experiments:
[1] = system: juvenile lemon and nurse sharks; test: Tonic immobility, Micropipette Assay, summary over species; format: in vivo; details: for Micropipette Y (termination of tonic immobility), trials of trials: juvenile lemon and nurse sharks, oral dose
Experimental: (§1) One bioassay used to observe and measure flight response is the tonic immobility test. Tonic immobility is a state of paralysis that typically occurs when a shark is subject to inversion of its body along the longitudinal axis. This state is called “tonic,” and the shark can remain in this state for up to 15 minutes thereby allowing researchers to observe effects of chemical repellents. The “tonic” state of the shark is first established by releasing seawater in proximity to the “tonic” shark with the same delivery instrument and at the same distance as a “test” repellent compound will be released. Some controls are released with a high flow rate (30 mL/sec) in order to establish that sharks are not awakened by a jet of fluid over their noses. Once behavioral controls are established, a compound or composition that may have a repelling effect is delivered to the shark. If the compound or composition engenders a flight response, the shark will awaken from the tonic state and rapidly attempt to flee the delivered repellent. Using this tonic immobility bioassay researches can quantify the strength of a repellent effect.
(§2) A fourth method of delivery was called the “Micropipette Assay” method of delivery. In this method, a very small dose (fraction of a mL) of a test substance was delivered directly into a shark's mouth. […] A response, such as a cough or other notable action of the shark, was usually noted when effective gustatory repellents were delivered directly into a shark's mouth while in tonic immobility.
(§3) The Micropipette Assay method has not proven to be a particularly effective method of assaying for a flight response in elasmobranchs. The Micropipette Assay method is, nevertheless, an excellent method for specifying that a gustatory response has occurred. It is effective for specifying a gustatory response because the micropipette delivery method allows direct delivery of an entire bolus of test substance into the mouth of the shark being tested.
An oral dose of no more than 400 microliters was then delivered by micropipette into the mouth of a juvenile nurse shark. Tonic immobility was terminated. For each derivative of butyric acid and each naturally occurring acid listed in Table 9, a first micropipette assay was performed on a juvenile lemon shark with no more than 100 microliters of test acid in an oral dose. A second micropipette assay was then performed on a juvenile nurse shark with no more than 400 microliters of test acid in an oral dose. In each test, tonic immobility was terminated.
In a first set of studies on the effectiveness of carboxylic acids as elasmobranch repellents, each tested substance was subjected to the following protocol. […] An oral dose of no more than 400 microliters was then delivered by micropipette into the mouth of a juvenile nurse shark. Tonic immobility was terminated. […] The data evidences the gustatory repelling activity of carboxylic acids.

[2] = system: sharks (lemon, nurse, blacktip, tiger, blacknose pooled); test: Tonic immobility, Syringe 3/5/10 Assay, summary over species; format: in vivo
Experimental: as §1
(§4) In the tonic immobility studies disclosed herein, several different methods were employed for delivery of repelling compounds. A first method for delivery of chemical repellent in tonic immobility studies employed a “Syringe 3/5/10 Assay” method. The “Syringe 3/5/10 Assay” method is so named because a test repellent is delivered to a shark from a distance of about “3” inches with a bolus of about “5” mL with a response to the test repellent considered positive if the shark reacts with a change in behavior within less than about “10” seconds from the time of delivery.
(§5) The “3/5/10 Syringe Assay” as employed herein delivered a dose of 5-6 mL of a test chemical repellent from a syringe fixed with a needle having a gauge of about 22 from a distance at least 3 inches in front of a shark. Because the test chemical repellent was delivered at a distance from the shark's nares and mouth, a cloud of test chemical repellent was dispersed over the shark within the water column. The dispersed test repellent was subject to water current direction, dispersion and dilution. As a result, a flight response within 10 seconds was considered a positive repellency response. […] Time from delivery to response is related to the size of the bolus delivered from the syringe, distance of the shark from the syringe and water current.
(§6) In Syringe 3/5/10 Assays, 5-6 mL of 3-methylbutanal was delivered at least 3 inches in front of the shark's mouth. A cloud of the repellent dispersed over the shark within the water column. […] As noted above, because the dispersion of the chemical repellent upon delivery is affected by volume of repellent, water current, and other factors, the time between delivery and response was not correlatable with the potency of the repellent.

nurse sharks [3] = test: Tonic immobility, Syringe 3/5/10 Assay; format: in vivo, C. cirratum; details: Table 24; nurse shark; syringe 3/5/10 delivery; 6 ml; mouth
juvenile sharks = test: Initial tonic immobility assays, mouth delivery by micropipette or syringe; format: in vivo; details: introduced to the mouth using a micropipette or syringe
nurse sharks [4] = test: Tonic immobility, Micropipette Assay; format: in vivo, C. cirratum
Experimental: as §1, §2
as §3, with “tested. […]” for “tested.”

Caribbean reef sharks = test: Cloud dispersion assay (cloud - co2); format: in vivo, C. perezii; details: for Comments (effect on shark population): cloud, 500 mL
Source text: Another bioassay used to observe a flight response in sharks is a cloud dispersion assay on competitively feeding population of sharks. This assay is referred to as a “Cloud Dispersion Assay” or “Cloud Assay.” A pressurized fluid delivery system was designed to deliver repellent into large feeding populations of sharks. The repellent is released as a subsurface cloud, which follows the current. A 1 L plastic container containing the test chemical repellent solution is pressurized to approximately 20 psig with a battery compressor or hand pump. A globe valve is used to hold back the fluid. The fluid is delivered to the end of a long PVC pole using a Teflon tubing. This allows the operator to place the tip of the pole well into a population of feeding sharks. By actuating the small globe valve, a cloud of the chemical solution is released quickly and reliably into the feeding population. Controls are established using FD&C Red 40 dye and seawater, uncolored seawater, and air. These controls establish that sharks are not afraid to approach the delivery pole, nor are sharks deterred from feeding by the jet of control fluid or air.
Syringe 3/5/10, Hd Syringe and Micropipette assays were carried out as described in Examples 1 and 2.

lemon sharks [5] = test: Tonic immobility, Hd Syringe Assay; format: in vivo, N. brevirostris; details: lemon sharks
Experimental: as §1
(§7) Lemon, nurse, blacktip and tiger sharks were placed in tonic immobility by inverting the shark's body along its longitudinal axis. […] The “tonic” state of each shark was first established by releasing a control of seawater in proximity to the shark with the same delivery instrument and at the same distance as the chemical repellent would later be delivered. In certain controls, sea water was released with a high flow rate (30 mL/sec) in order to establish that the sharks would not be awakened by a jet of fluid over their noses.
Once behavioral controls were established, the chemical repellent was delivered to the shark using the Hd Syringe Assay method, the Syringe 3/5/10 Assay method, the Bite Assay method or the Micropipette Assay method. […]

blacktip sharks = test: Tonic immobility, Syringe 3/5/10 Assay; format: in vivo, C. limbatus
Experimental: as §1, §4, §5, §7
(§8) Once behavioral controls were established, the chemical repellent was delivered to the shark using the Hd Syringe Assay method, the Syringe 3/5/10 Assay method, the Bite Assay method or the Micropipette Assay method. […] If tonic immobility was terminated, the positive response was denoted as “Y.” If tonic immobility was not terminated but a behavior change within tonic immobility was noted, such as the opening of the mouth or a cough, the response was denoted as an “R” for reduced response. If no behavior change was observed, the negative response was denoted “N.”
as §6, with “repellent. […]” for “repellent.”

[6] = system: sharks (lemon, nurse, tiger pooled); test: Tonic immobility, Hd Syringe Assay, summary over species; format: in vivo; details: species pooled
Experimental: as §1
In Hd-Syringe Assays, the 3-methylbutanal was delivered to the shark's mouth and nares using a 3 mL hypodermic syringe fitted with a 22 gauge needle. The needle was held within 3 inches of the shark's mouth and the test repellent was slowly released from the syringe with a very fine plume in the water column. Any response was denoted. If a response occurred during a measurable time after delivery of the test chemical, the time between delivery and response was noted. If a response occurred immediately or the response occurred before a measurable time could be established, no time to response was noted.

nurse sharks [7] = test: Tonic immobility, Hd Syringe Assay; format: in vivo, C. cirratum; details: juvenile nurse shark
Experimental: as §1
Lemon, nurse, blacktip and tiger sharks were placed in tonic immobility by inverting the shark's body along its longitudinal axis. […]

lemon sharks [8] = test: Tonic immobility, Micropipette Assay; format: in vivo, N. brevirostris; details: juvenile lemon shark, micropipette
Experimental: as §1, §2, §3
Using a microliter syringe or microliter pipette, a bolus of test chemical can be directed precisely into one of the shark's nares, or its mouth. […] Olfactory repellents will terminate tonic immobility almost immediately when injected into a nare of the shark.
as §7, §8
Further because the Micropipette assays were often done serially on the same set of sharks, second and third doses of the repellent over time would be expected to evoke less of a reaction. Nevertheless, the small doses delivered to the shark in the Micropipette assay provide important data on whether a compound is a gustatory stimulant because the small dose may be delivered directly into the mouth of the shark. This eliminates any olfactory response that might be acting in concert with a gustatory response to terminate tonic immobility.

[9] = listed as crotonic acid solution

## CC=CC(=O)O [crotonic acid solution (2-butenoic acid), 2-butenoic acid]
[1]
  Micropipette Y (termination of tonic immobility), trials of trials: 2/2
[1]; lemon and nurse sharks
  screening result: shark repelling compounds
[2]
  Syringe 3/5/10 N (no response), trials of trials: 2/7
  Syringe 3/5/10 R (behavior response within tonic immobility), trials of trials: 1/7
  Syringe 3/5/10 Y (termination of tonic immobility), trials of trials: 4/7
[2]; [9]
  Syringe 3/5/10 N (no response), trials of trials: two of the seven
  Syringe 3/5/10 R (behavior response within tonic immobility), trials of trials: one of the seven
  Syringe 3/5/10 Y (termination of tonic immobility), trials of trials: four of the seven
Nurse sharks [3]
  T? (termination of tonic immobility): Y and R

## c1ccncc1 [Pyridine, pyridine]
[2]
  Syringe 3/5/10 R (behavior response within tonic immobility), trials of trials: 1/4
  Syringe 3/5/10 Y (termination of tonic immobility), trials of trials: 3/4
[2]; listed as pyridine
  Syringe 3/5/10 R (behavior response within tonic immobility), trials of trials: one of four
  Syringe 3/5/10 Y (termination of tonic immobility), trials of trials: three of four
Juvenile sharks
  result of initial tonic immobility assays: terminated tonic immobility
Nurse sharks [4]; nurse shark, about 500 microliters into the mouth
  Micropipette assay outcome: did not evoke a response

## Cc1cccnc1N [2-amino-3-picoline]
Caribbean reef sharks; cloud - co2, 500 mL
  T?: Y
Caribbean reef sharks
  Comments (effect on shark population): population decreased
Caribbean reef sharks; listed as 2-amino-3-picoline 95% cut to 10% w/w with desalinated water
  Comments (effect on shark population): population decrease

## O=C(O)CC(O)(CC(=O)O)C(=O)O [Citric acid 50% w/w, Citric acid]
[1]
  Micropipette Y (termination of tonic immobility), trials of trials: 2/2
Lemon sharks [5]
  Hd Syringe assays terminating tonic immobility: four of four
Blacktip sharks; Table 24, blacktip shark, syringe 3/5/10 delivery, 6 ml, mouth longline
  T? (termination of tonic immobility): Y
Nurse sharks [3]
  T? (termination of tonic immobility): R
[6]
  Hd-Syringe Y (termination of tonic immobility), trials of trials: 4/4

## Cc1c(N)c(=O)n(-c2ccccc2)n1C [4-aminoantipyrine]
Lemon sharks [5]
  Hd Syringe assays terminating tonic immobility: all assays terminated tonic immobility
Nurse sharks [7]
  Hd Syringe assays terminating tonic immobility: terminated
Blacktip sharks; blacktip sharks
  Syringe 3/5/10 assays with no response: no response
[6]
  Hd-Syringe Y (termination of tonic immobility), trials of trials: terminated tonic immobility in all tests
[6]; listed as 4-amino-antipyrine
  Hd-Syringe Y (termination of tonic immobility), trials of trials: five of five
[6]; listed as 4-amino-antipyrine (metapirazone)
  Hd-Syringe Y (termination of tonic immobility), trials of trials: 5/5

## CCCC(=O)O [n-Butyric Acid, n-butyric acid]
[1]
  Micropipette Y (termination of tonic immobility), trials of trials: 2/2
[1]; listed as butyric acid
  Micropipette Y (termination of tonic immobility), trials of trials: termination of tonic immobility
[1]; juvenile lemon or nurse sharks
  mouth dose at which tonic immobility was terminated: 100 µL
Lemon sharks [8]
  oral dose that terminated tonic immobility: no more than 100 microliters
Nurse sharks [4]; juvenile nurse shark, micropipette
  oral dose that terminated tonic immobility: no more than 400 microliters
